{"source": "patent US20130210031A1", "about": "(priority 2010, published 2013)", "origin": "cited, not measured here", "biological_target": "EF (Bacillus anthracis, UniProt P40136)", "sequence (P40136 whole entry, looked up)": "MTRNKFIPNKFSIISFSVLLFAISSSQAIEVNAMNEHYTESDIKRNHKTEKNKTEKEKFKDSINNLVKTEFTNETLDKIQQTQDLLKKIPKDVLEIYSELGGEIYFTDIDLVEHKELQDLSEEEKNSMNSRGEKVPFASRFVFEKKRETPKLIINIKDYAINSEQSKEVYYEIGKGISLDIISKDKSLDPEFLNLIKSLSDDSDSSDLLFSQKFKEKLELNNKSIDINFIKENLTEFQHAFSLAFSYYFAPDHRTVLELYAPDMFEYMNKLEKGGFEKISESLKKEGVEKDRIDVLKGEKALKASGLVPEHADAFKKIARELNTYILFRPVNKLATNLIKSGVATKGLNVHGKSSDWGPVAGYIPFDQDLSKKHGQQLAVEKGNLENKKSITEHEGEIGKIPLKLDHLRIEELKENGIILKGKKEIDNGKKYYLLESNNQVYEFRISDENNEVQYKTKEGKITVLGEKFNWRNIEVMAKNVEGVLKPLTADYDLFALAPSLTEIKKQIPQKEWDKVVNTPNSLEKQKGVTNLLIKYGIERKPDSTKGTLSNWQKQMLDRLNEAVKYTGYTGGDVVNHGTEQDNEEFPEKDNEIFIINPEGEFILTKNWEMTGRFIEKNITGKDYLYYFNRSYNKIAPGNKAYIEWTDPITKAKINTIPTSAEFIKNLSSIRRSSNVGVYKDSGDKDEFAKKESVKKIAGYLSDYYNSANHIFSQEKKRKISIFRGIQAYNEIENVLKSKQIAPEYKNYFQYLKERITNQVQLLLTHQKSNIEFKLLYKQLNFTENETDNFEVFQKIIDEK", "data": [{"smiles": "CC(C)(C)C(=O)OCOP(=O)(COCCn1cnc2c(N)ncnc21)OCOC(=O)C(C)(C)C", "note": "[adefovir dipivoxil]", "values": [{"measurement": "EF inhibitor potency", "value": "potent EF inhibitor"}]}]}
